Assay results taken from paper PMC5340577 (Nuclear medicine and biology, 2016).

Legend:
[1] = Stability of Re complex in aqueous solution by ^1H NMR; type: physicochemical; details: D2O, pH 7
[2] = humans; cited from earlier work

Compound	stability in aqueous solution (^1H NMR signals) [1]	clearance as percent of that of ^131I-OIH [2]
Na[Re(CO)3(FEDA)] [Re-4]	no change for weeks	
O=C([O-])CN=C([O-])CN=C([O-])CN=C([O-])C[S-].[O-2].[Tc+4] [^99mTc-MAG3, ^99mTc-mercaptoacetyltriglycine]		~ 60%
